Experimental data as given in PubChem BioAssay (NCI).
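Tested at 5 concentrations; 48 h exposure; 96-well plates; endpoints linearly interpolated, else capped at highest concentration. The concentration for full growth arrest is given as TGI.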

Tests used:
Assay in all cases: NCI tumour cell line growth inhibition, 48 h
NCI-H460 lung = system: NCI-H460 lung
BT-549 breast = system: BT-549 breast
SF-539 CNS = system: SF-539 CNS
T-47D breast = system: T-47D breast
K-562 leukemia = system: K-562 leukemia
MDA-N = system: MDA-N
A498 renal = system: A498 renal
MCF7 breast = system: MCF7 breast
CAKI-1 renal = system: CAKI-1 renal
IGROV1 ovarian = system: IGROV1 ovarian
UACC-257 melanoma = system: UACC-257 melanoma
SK-MEL-5 melanoma = system: SK-MEL-5 melanoma
DU-145 prostate = system: DU-145 prostate
NCI-H23 lung = system: NCI-H23 lung
NCI/ADR-RES ovarian = system: NCI/ADR-RES ovarian
SF-295 CNS = system: SF-295 CNS
OVCAR-5 ovarian = system: OVCAR-5 ovarian
OVCAR-8 ovarian = system: OVCAR-8 ovarian
NCI-H226 lung = system: NCI-H226 lung
TK-10 renal = system: TK-10 renal
SK-MEL-28 melanoma = system: SK-MEL-28 melanoma
RXF 393 renal = system: RXF 393 renal
SNB-75 CNS = system: SNB-75 CNS
SK-MEL-2 melanoma = system: SK-MEL-2 melanoma
HL-60(TB) leukemia = system: HL-60(TB) leukemia
UO-31 renal = system: UO-31 renal
SW-620 colon = system: SW-620 colon
OVCAR-3 ovarian = system: OVCAR-3 ovarian
KM12 colon = system: KM12 colon
HCT-15 colon = system: HCT-15 colon
M14 melanoma = system: M14 melanoma
COLO 205 colon = system: COLO 205 colon
HOP-62 NSCLC = system: HOP-62 NSCLC
U251 CNS = system: U251 CNS
HCT-116 colon = system: HCT-116 colon
ACHN renal = system: ACHN renal
SN12C renal = system: SN12C renal
MDA-MB-231 breast = system: MDA-MB-231 breast
PC-3 prostate = system: PC-3 prostate
MOLT-4 leukemia = system: MOLT-4 leukemia
OVCAR-4 ovarian = system: OVCAR-4 ovarian
RPMI-8226 leukemia = system: RPMI-8226 leukemia
786-0 renal = system: 786-0 renal
A549 NSCLC = system: A549 NSCLC
HOP-92 NSCLC = system: HOP-92 NSCLC
HT29 colon = system: HT29 colon
LOX IMVI melanoma = system: LOX IMVI melanoma
EKVX NSCLC = system: EKVX NSCLC
SK-OV-3 ovarian = system: SK-OV-3 ovarian
SF-268 CNS = system: SF-268 CNS
UACC-62 melanoma = system: UACC-62 melanoma
NCI-H522 lung = system: NCI-H522 lung
SNB-19 CNS = system: SNB-19 CNS
MDA-MB-435 = system: MDA-MB-435
MALME-3M melanoma = system: MALME-3M melanoma
HCC-2998 colon = system: HCC-2998 colon
SR leukemia = system: SR leukemia
CCRF-CEM leukemia = system: CCRF-CEM leukemia

NN/C(=N\S(=O)(=O)c1ccc(-c2ccccn2)s1)Nc1ccc(Cl)cc1
TGI (NCI-H460 lung): > 100 µM
TGI (BT-549 breast): > 100 µM
TGI (SF-539 CNS): > 100 µM
TGI (T-47D breast): > 100 µM
TGI (K-562 leukemia): > 100 µM
TGI (MDA-N): > 100 µM
TGI (A498 renal): > 100 µM
TGI (MCF7 breast): > 100 µM
TGI (CAKI-1 renal): > 100 µM
TGI (IGROV1 ovarian): > 100 µM
TGI (UACC-257 melanoma): > 100 µM
TGI (SK-MEL-5 melanoma): > 100 µM
TGI (DU-145 prostate): > 100 µM
TGI (NCI-H23 lung): > 100 µM
TGI (NCI/ADR-RES ovarian): > 100 µM
TGI (SF-295 CNS): > 100 µM
TGI (OVCAR-5 ovarian): > 100 µM
TGI (OVCAR-8 ovarian): > 100 µM
TGI (NCI-H226 lung): > 100 µM
TGI (TK-10 renal): > 100 µM
TGI (SK-MEL-28 melanoma): > 100 µM
TGI (RXF 393 renal): 94 µM
TGI (SNB-75 CNS): 69.2 µM
TGI (SK-MEL-2 melanoma): > 100 µM
TGI (HL-60(TB) leukemia): > 100 µM
TGI (UO-31 renal): > 100 µM
TGI (SW-620 colon): > 100 µM
TGI (OVCAR-3 ovarian): > 100 µM
TGI (KM12 colon): > 100 µM
TGI (HCT-15 colon): > 100 µM
TGI (M14 melanoma): > 100 µM
TGI (COLO 205 colon): > 100 µM
TGI (HOP-62 NSCLC): > 100 µM
TGI (U251 CNS): > 100 µM
TGI (HCT-116 colon): > 100 µM
TGI (ACHN renal): > 100 µM
TGI (SN12C renal): > 100 µM
TGI (MDA-MB-231 breast): > 100 µM
TGI (PC-3 prostate): > 100 µM
TGI (MOLT-4 leukemia): > 100 µM
TGI (OVCAR-4 ovarian): > 100 µM
TGI (RPMI-8226 leukemia): > 100 µM
TGI (786-0 renal): > 100 µM
TGI (A549 NSCLC): > 100 µM
TGI (HOP-92 NSCLC): > 100 µM
TGI (HT29 colon): > 100 µM
TGI (LOX IMVI melanoma): > 100 µM
TGI (EKVX NSCLC): > 100 µM
TGI (SK-OV-3 ovarian): > 100 µM
TGI (SF-268 CNS): 84.2 µM
TGI (UACC-62 melanoma): > 100 µM
TGI (NCI-H522 lung): 57.1 µM
TGI (SNB-19 CNS): > 100 µM

OC1(c2ccccc2)CCCCCCCCC(O)(c2ccccc2)CCCCCCCC1 (stereo not given)
TGI (MDA-MB-435): > 100 µM
TGI (NCI-H460 lung): > 100 µM
TGI (SF-539 CNS): > 100 µM
TGI (T-47D breast): > 100 µM
TGI (K-562 leukemia): > 100 µM
TGI (MDA-N): > 100 µM
TGI (MALME-3M melanoma): > 100 µM
TGI (A498 renal): > 100 µM
TGI (MCF7 breast): > 100 µM
TGI (CAKI-1 renal): > 100 µM
TGI (IGROV1 ovarian): > 100 µM
TGI (UACC-257 melanoma): > 100 µM
TGI (SK-MEL-5 melanoma): > 100 µM
TGI (DU-145 prostate): > 100 µM
TGI (NCI-H23 lung): > 100 µM
TGI (NCI/ADR-RES ovarian): > 100 µM
TGI (SF-295 CNS): > 100 µM
TGI (OVCAR-5 ovarian): > 100 µM
TGI (OVCAR-8 ovarian): > 100 µM
TGI (TK-10 renal): > 100 µM
TGI (SK-MEL-28 melanoma): > 100 µM
TGI (RXF 393 renal): > 100 µM
TGI (SNB-75 CNS): > 100 µM
TGI (SK-MEL-2 melanoma): > 100 µM
TGI (HL-60(TB) leukemia): > 100 µM
TGI (UO-31 renal): > 100 µM
TGI (SW-620 colon): > 100 µM
TGI (OVCAR-3 ovarian): > 100 µM
TGI (KM12 colon): > 100 µM
TGI (HCT-15 colon): > 100 µM
TGI (M14 melanoma): > 100 µM
TGI (COLO 205 colon): > 100 µM
TGI (HOP-62 NSCLC): > 100 µM
TGI (U251 CNS): > 100 µM
TGI (HCT-116 colon): > 100 µM
TGI (HCC-2998 colon): > 100 µM
TGI (ACHN renal): > 100 µM
TGI (SR leukemia): > 100 µM
TGI (SN12C renal): > 100 µM
TGI (PC-3 prostate): > 100 µM
TGI (OVCAR-4 ovarian): > 100 µM
TGI (786-0 renal): > 100 µM
TGI (A549 NSCLC): > 100 µM
TGI (HOP-92 NSCLC): > 100 µM
TGI (HT29 colon): > 100 µM
TGI (LOX IMVI melanoma): > 100 µM
TGI (EKVX NSCLC): > 100 µM
TGI (SK-OV-3 ovarian): > 100 µM
TGI (SF-268 CNS): > 100 µM
TGI (UACC-62 melanoma): > 100 µM
TGI (NCI-H522 lung): > 100 µM
TGI (SNB-19 CNS): > 100 µM

O=c1c2ccccc2n2c(=S)[nH]nc2n1-c1ccccc1
TGI (MDA-MB-435): > 100 µM
TGI (NCI-H460 lung): > 100 µM
TGI (SF-539 CNS): > 100 µM
TGI (T-47D breast): > 100 µM
TGI (K-562 leukemia): > 100 µM
TGI (MDA-N): > 100 µM
TGI (MALME-3M melanoma): > 100 µM
TGI (A498 renal): > 100 µM
TGI (MCF7 breast): > 100 µM
TGI (CAKI-1 renal): > 100 µM
TGI (IGROV1 ovarian): > 100 µM
TGI (CCRF-CEM leukemia): > 100 µM
TGI (UACC-257 melanoma): > 100 µM
TGI (SK-MEL-5 melanoma): > 100 µM
TGI (DU-145 prostate): > 100 µM
TGI (NCI-H23 lung): > 100 µM
TGI (NCI/ADR-RES ovarian): > 100 µM
TGI (SF-295 CNS): > 100 µM
TGI (OVCAR-5 ovarian): > 100 µM
TGI (OVCAR-8 ovarian): > 100 µM
TGI (NCI-H226 lung): > 100 µM
TGI (TK-10 renal): > 100 µM
TGI (SK-MEL-28 melanoma): > 100 µM
TGI (RXF 393 renal): > 100 µM
TGI (SNB-75 CNS): 84 µM
TGI (SK-MEL-2 melanoma): > 100 µM
TGI (HL-60(TB) leukemia): > 100 µM
TGI (UO-31 renal): > 100 µM
TGI (SW-620 colon): > 100 µM
TGI (OVCAR-3 ovarian): > 100 µM
TGI (KM12 colon): > 100 µM
TGI (HCT-15 colon): > 100 µM
TGI (M14 melanoma): > 100 µM
TGI (COLO 205 colon): > 100 µM
TGI (HOP-62 NSCLC): > 100 µM
TGI (U251 CNS): > 100 µM
TGI (HCT-116 colon): > 100 µM
TGI (HCC-2998 colon): > 100 µM
TGI (ACHN renal): > 100 µM
TGI (SR leukemia): > 100 µM
TGI (SN12C renal): > 100 µM
TGI (MDA-MB-231 breast): > 100 µM
TGI (PC-3 prostate): > 100 µM
TGI (MOLT-4 leukemia): > 100 µM
TGI (OVCAR-4 ovarian): > 100 µM
TGI (786-0 renal): > 100 µM
TGI (A549 NSCLC): > 100 µM
TGI (HT29 colon): > 100 µM
TGI (LOX IMVI melanoma): > 100 µM
TGI (EKVX NSCLC): > 100 µM
TGI (SK-OV-3 ovarian): > 100 µM
TGI (SF-268 CNS): > 100 µM
TGI (UACC-62 melanoma): > 100 µM
TGI (NCI-H522 lung): > 100 µM
TGI (SNB-19 CNS): > 100 µM
